Source: paper PMC12287035, “Anticandidal activity of Clinopodium chilense essential oil” (Frontiers in Pharmacology, 2025)
Converted amounts (≈) assume the structure as drawn. Read-outs that look alike come from different tables or passages of the source.

How the values were obtained:
[1] = system: CCD 841 CoN (colon epithelial cells); assay: Sulforhodamine B (SRB) cell viability assay; assay type: cell-based; details: Homo sapiens, 72 h, non-tumorigenic cells
Method: (§1) The cytotoxicity of C. chilense EO was evaluated in two non-tumorigenic human cell lines: CCD 841 CoN (colon epithelial cells) and HEK-293T (human embryonic kidney). All tested cell lines were obtained from the AmericanType Culture Collection (Rockville, MD, United States). The different cell lines were maintained as monolayers in a culture medium (HAM-F10 + DMEM, 1:1) supplemented with 10% fetal bovine serum, as well as antibiotics (0.01 mg/mL streptomycin and 0.005 mg/mL penicillin). The cells were incubated at 37 °C in a humidified 5% CO2 atmosphere.
(§2) To determine the effect on cell viability of C. chilense EO, the sulforhodamine B (SRB)assay was used to measure the number of viable cells after each treatment ([Silva et al., 2022]). Cells were seeded in 96-well plates at 3 × 10^3 cells/well in 100 μL of culture medium and treated in triplicate with increasing concentrations of essential oil (0.625–100 μg/mL) for 72 h at 37°C and 5% CO2. The cells which received only the medium containing 0.1% DMSO served as the control group. […] The dye is solubilized with 150 μL/well of 10 mM Tris Base, and the absorbance is then measured at a wavelength of 540 nm in a microplate reader. […]

[2] = system: HEK-293T (human embryonic kidney); assay: Sulforhodamine B (SRB) cell viability assay; assay type: cell-based; details: 72 h, non-tumorigenic cells
Method: as §1, §2

C. albicans (10,935) = assay: Broth microdilution antifungal susceptibility (CLSI M27-A3), MIC and MFC; assay type: cell-based, Candida albicans; details: for MFC / MIC: Candida albicans, 48 h
Method: (§3) The antifungal activity of the EO and its main components was evaluated against reference strains and clinical isolates of Candida. The reference strains C. albicans (ATCC 7978) and C. parapsilosis (ATCC 22019) were used, as well as the clinical isolates C. albicans 10,935, C. dubliniensis 3240, Candida glabrata 10,912, C. guilliermondii 12,204, C. lusitaniae 2305, and Candida tropicalis 9841. The clinical isolates were obtained from patients of the Base Hospital of […], Los Ríos Region, Chile. After identification, the microorganisms were included in the pathogenic fungal collection (Bioassay Laboratory of University of […]íso). They are maintained in Sabouraud Dextrose Broth (SDB) with glycerol at -80°C according to established protocols ([Madrid et al., 2012]). […] Briefly, cultures of all yeast were placed on Sabouraud Dextrose Agar (SDA) and incubated for 24-72 h at temperature 37°C. Colonies of this culture were suspended in sterile 0.85% NaCl and the inoculum was standardized according to the scale of 0.5 McFarland (1-5 × 10^6 CFU/mL). The antifungal assay was conducted in 96-well plates. […] A volume of 100 μL of inoculum suspension was added to each well with the exception of the sterility control where sterile water was added to the well instead. […] Following a 24-48 h incubation at 37°C, the absorbance of the plates was measured at 540 nm using a VERSA Max microplate reader (Molecular Devices, Sunnyvale, CA, United States) for spectrophotometric analysis. […] The lowest concentration with no visible growth was defined as MFC indicating 99.5% death of the original inoculum. All experiments were performed in triplicate and repeated three times for reproducibility.

C. albicans (ATCC 7978) = assay: as above; assay type: cell-based, Candida albicans; details: for MFC / MIC: Candida albicans
Method: as §3

[3] = system: C. parapsilosis (ATCC 22019); assay: as above; assay type: cell-based, Candida parapsilosis; details: Lodderomyces parapsilosis
Method: as §3

[4] = system: C. guilliermondii (12,204); assay: as above; assay type: cell-based; details: Meyerozyma guilliermondii, 48 h
Method: as §3

C. lusitaniae (2305) = assay: as above; assay type: cell-based; details: for MFC / MIC: Clavispora lusitaniae, 48 h; for MFC/MIC ratio: C. lusitaniae
Method: as §3

C. tropicalis (9841) = assay: as above; assay type: cell-based; details: Candida tropicalis, 48 h
Method: as §3

C. glabrata (10,912) = assay: as above; assay type: cell-based, Candida glabrata; details: for MFC / MIC: Nakaseomyces glabratus, 48 h
Method: as §3

Candida spp. = assay: Broth microdilution antifungal susceptibility, summary over all tested strains; assay type: cell-based; details: for MIC: Candida, summary over all tested strains
Method: as §3

[5] = C. albicans (10,935), clinical isolate, read-out: MFC
[6] = C. albicans (10,935), clinical isolate, read-out: MIC
[7] = ATCC7978, C. albicans (ATCC 7978), 48 h, read-out: MFC
[8] = ATCC7978, C. albicans (ATCC 7978), 48 h, read-out: MIC
[9] = ATCC22019, C. parasilopsis (ATCC 22019), 48 h, read-out: MFC
[10] = ATCC22019, C. parasilopsis (ATCC 22019), 48 h, read-out: MIC
[11] = C. guilliermondii (12,204), clinical isolate, read-out: MFC
[12] = C. guilliermondii (12,204), clinical isolate, read-out: MIC
[13] = C. lusitaniae (2305), clinical isolate, read-out: MFC
[14] = C. lusitaniae (2305), clinical isolate, read-out: MIC
[15] = C. tropicalis (9841), clinical isolate, read-out: MFC
[16] = C. tropicalis (9841), clinical isolate, read-out: MIC
[17] = C. glabrata (10,912), clinical isolate, read-out: MFC
[18] = C. glabrata (10,912), clinical isolate, read-out: MIC
[19] = as stated in the text for several or all strains
[20] = remaining species/strains, those not named with ratio 1

Row | SMILES | MFC (C. albicans (10,935); [5]) [µg/mL] | MIC (C. albicans (10,935); [6]) [µg/mL] | MFC (C. albicans (ATCC 7978); [7]) [µg/mL] | MIC (C. albicans (ATCC 7978); [8]) [µg/mL] | MFC [3, 9] [µg/mL] | MIC [3, 10] [µg/mL] | MFC [4, 11] [µg/mL] | MIC [4, 12] [µg/mL] | MFC (C. lusitaniae (2305); [13]) [µg/mL] | MIC (C. lusitaniae (2305); [14]) [µg/mL] | MFC (C. tropicalis (9841); [15]) [µg/mL] | MIC (C. tropicalis (9841); [16]) [µg/mL] | MFC (C. glabrata (10,912); [17]) [µg/mL] | MIC (C. glabrata (10,912); [18]) [µg/mL] | further results
1 | O=c1[nH]cc(F)c(=O)[nH]1 [5-FU, 5-fluorouracil] | – | – | – | – | – | – | – | – | – | – | – | – | – | – | IC50 [1]: 56.4 ± 0.31 µg/mL (≈ 434 µM); IC50 [2]: 18.3 ± 0.56 µg/mL (≈ 141 µM)
2 | C[C@@H]1[C@H](O)[C@@H](C)/C=C/C=C/C=C/C=C/C=C/C=C/C=C/[C@H](O[C@@H]2O[C@H](C)[C@@H](O)[C@H](N)[C@@H]2O)C[C@@H]2O[C@](O)(C[C@@H](O)C[C@@H](O)[C@H](O)CC[C@@H](O)C[C@@H](O)CC(=O)O[C@H]1C)C[C@H](O)[C@H]2C(=O)O [C1, amphotericin B, reference compound] | 256 (≈ 277 µM) | 128 (≈ 139 µM) | 2 (≈ 2.16 µM) | 1 (≈ 1.08 µM) | 1 (≈ 1.08 µM) | 0.5 (≈ 0.541 µM) | 128 (≈ 139 µM) | 64 (≈ 69.3 µM) | 128 (≈ 139 µM) | 64 (≈ 69.3 µM) | 64 (≈ 69.3 µM) | 32 (≈ 34.6 µM) | 256 (≈ 277 µM) | 128 (≈ 139 µM) | –
3 | OC(Cn1cncn1)(Cn1cncn1)c1ccc(F)cc1F [C2, fluconazole, reference compound] | 4 (≈ 13.1 µM) | 2 (≈ 6.53 µM) | 1 (≈ 3.27 µM) | 0.5 (≈ 1.63 µM) | 2 (≈ 6.53 µM) | 1 (≈ 3.27 µM) | 1 (≈ 3.27 µM) | 0.5 (≈ 1.63 µM) | 4 (≈ 13.1 µM) | 2 (≈ 6.53 µM) | 1 (≈ 3.27 µM) | 0.5 (≈ 1.63 µM) | 64 (≈ 209 µM) | 32 (≈ 104 µM) | MFC/MIC ratio (Candida spp.; [19]): 2
4 | CCC(C)n1ncn(-c2ccc(N3CCN(c4ccc(OCC5COC(Cn6cncn6)(c6ccc(Cl)cc6Cl)O5)cc4)CC3)cc2)c1=O (stereo not shown) [C3, itraconazole, reference compound] | 8 (≈ 11.3 µM) | 4 (≈ 5.67 µM) | 1 (≈ 1.42 µM) | 0.5 (≈ 0.709 µM) | 1 (≈ 1.42 µM) | 1 (≈ 1.42 µM) | 4 (≈ 5.67 µM) | 2 (≈ 2.83 µM) | 8 (≈ 11.3 µM) | 4 (≈ 5.67 µM) | 1 (≈ 1.42 µM) | 0.5 (≈ 0.709 µM) | 16 (≈ 22.7 µM) | 8 (≈ 11.3 µM) | –
5 | CC(C)=C1CC[C@@H](C)CC1=O [Compound 1, pulegone] | – | – | – | – | – | – | – | – | – | – | – | – | – | – | MFC (C. albicans (10,935)): 128 µg/mL (≈ 841 µM); MIC (C. albicans (10,935)): 64 µg/mL (≈ 420 µM); MFC (C. albicans (ATCC 7978); ATCC7978, 48 h): 128 µg/mL (≈ 841 µM); MIC (C. albicans (ATCC 7978); ATCC7978, 48 h): 128 µg/mL (≈ 841 µM); MFC ([3]; ATCC22019, 48 h): 256 µg/mL (≈ 1680 µM); MIC ([3]; ATCC22019, 48 h): 128 µg/mL (≈ 841 µM); MFC [4]: 128 µg/mL (≈ 841 µM); MIC [4]: 64 µg/mL (≈ 420 µM); MFC/MIC ratio (C. lusitaniae (2305)): 1; MFC (C. lusitaniae (2305)): 64 µg/mL (≈ 420 µM); MIC (C. lusitaniae (2305)): 64 µg/mL (≈ 420 µM); MFC (C. tropicalis (9841)): 256 µg/mL (≈ 1680 µM); MIC (C. tropicalis (9841)): 128 µg/mL (≈ 841 µM); MFC (C. glabrata (10,912)): 128 µg/mL (≈ 841 µM); MIC (C. glabrata (10,912)): 128 µg/mL (≈ 841 µM); MFC/MIC ratio (Candida spp.; [20]): 2
6 | Cc1ccc(C(C)C)c(O)c1 [Compound 2, thymol] | 32 (≈ 213 µM) | 32 (≈ 213 µM) | 64 (≈ 426 µM) | 64 (≈ 426 µM) | 64 (≈ 426 µM) | 32 (≈ 213 µM) | 64 (≈ 426 µM) | 32 (≈ 213 µM) | 64 (≈ 426 µM) | 32 (≈ 213 µM) | 128 (≈ 852 µM) | 64 (≈ 426 µM) | 64 (≈ 426 µM) | 64 (≈ 426 µM) | MFC/MIC ratio (C. albicans (10,935); C. albicans (10,935)): 1; MFC/MIC ratio (C. albicans (ATCC 7978); C. albicans (ATCC 7978)): 1; MFC/MIC ratio (C. lusitaniae (2305)): 1; MFC/MIC ratio (C. glabrata (10,912); C. glabrata): 1; MIC (Candida spp.): 32 to 64 µg/mL (≈ 213 to 426 µM); MFC/MIC ratio (Candida spp.; [20]): 2
7 | CC1CCC(C(C)C)C(=O)C1 (stereo not shown) [Compound 3, isomenthone] | 128 (≈ 830 µM) | 128 (≈ 830 µM) | 128 (≈ 830 µM) | 128 (≈ 830 µM) | 128 (≈ 830 µM) | 128 (≈ 830 µM) | 128 (≈ 830 µM) | 128 (≈ 830 µM) | 64 (≈ 415 µM) | 64 (≈ 415 µM) | 128 (≈ 830 µM) | 64 (≈ 415 µM) | 128 (≈ 830 µM) | 128 (≈ 830 µM) | MIC (Candida spp.): 128 µg/mL (≈ 830 µM); MFC/MIC ratio (Candida spp.; [19]): 1
